Experimental data reported in patent US20190069549A1, “HERBICIDAL COMPOSITIONS CONTAINING PYRIDINE CARBOXYLIC ACIDS OR DERIVATIVES THEREOF, WITH GLYPHOSATE OR GLUFOSINATE, OR DERIVATIVES THEREOF” (Dow AgroSciences LLC, priority 2017, published 2019).

Tests used:
Assay in all cases: Postemergence herbicidal activity, greenhouse trial (visual injury)
Type in all cases: in vivo
[1] = system: Cirsium arvense (thistle), CIRAR; details: 20-22 d
Experimental: (§1) Seeds of the desired test plant species were planted in Sun Gro MetroMix® 360 planting mixture, which typically has a pH of 6.0 to 6.8 and an organic matter content of about 30 percent, in plastic pots with a surface area of 103.2 square centimeters (cm^2). When required to ensure good germination and healthy plants, a fungicide treatment and/or other chemical or physical treatment was applied. The plants were grown for 7-36 days (d) in a greenhouse with an approximate 14-hour (h) photoperiod which was maintained at about 23° C. during the day and 22° C. during the night. Nutrients and water were added on a regular basis and supplemental lighting was provided with overhead metal halide 1000-Watt lamps as necessary. The plants were employed for testing when they reached the second or third true leaf stage.
(§2) Weighed amounts of technical material were dissolved in a volume of 97:3 volume per volume (v/v) acetone/dimethyl sulfoxide (DMSO) to make stock solutions. […] The concentrated stock solutions were diluted with an aqueous mixture of 1.5% v/v of Agri-dex crop oil concentrate to provide the appropriate application rates. Compound requirements are based upon a 12 milliliter (mL) application volume at a rate of 187 liters per hectare (L/ha). Spray solutions of the experimental compound mixtures were prepared by adding the stock solutions to the appropriate amount of dilution solution to form a 12 mL spray solution in two-way combinations. Formulated compounds were applied to the plant material with an overhead Mandel track sprayer equipped with 8002E nozzles calibrated to deliver 187 L/ha over an application area of 0.503 square meters (m^2) at a spray height of 18 inches (43 centimeters (cm)) above average plant canopy. Control plants were sprayed in the same manner with the solvent blank. Application rates for component (a) are in g ae/ha, and application rates for component (b) are in g ai/ha.
(§3) The treated plants and control plants were placed in a greenhouse as described above and watered by sub-irrigation to prevent wash-off of the test compounds. After 20-22 d, the condition of the test plants as compared with that of the control plants was determined visually and scored on a scale of 0 to 100 percent where 0 corresponds to no injury and 100 corresponds to complete kill. The condition of the test plants was compared with that of the control plants as determined visually and scored on a scale of 0 to 100 percent, where 0 corresponds to no injury and 100 corresponds to complete kill. Colby' s equation was used to determine the herbicidal effects expected from the mixtures.
(§4) Compound 1 was formulated as an EC and was combined with glyphosate or glufosinate and applied to weeds, and the phytotoxicity of the herbicidal composition was measured.

[2] = system: Helianthus annuus (sunflower), HELAN; details: 20-22 d
Experimental: as §1, §2, §3, §4

[3] = system: Zea mays (maize/corn), ZEAMX; details: 20-22 d
Experimental: as §1, §2, §3, §4

[4] = system: Abutilon theophrasti (velvetleaf), ABUTH; details: 20-22 d
Experimental: as §1, §2, §3, §4

[5] = system: Viola tricolor (wild pansy), VIOTR; details: 20-22 d
Experimental: as §1, §2, §3, §4

[6] = system: Polygonum convolvulus (wild buckwheat), POLCO; details: 20-22 d
Experimental: as §1, §2, §3, §4

[7] = system: Digitaria sanguinalis (large crabgrass), DIGSA; details: 20-22 d
Experimental: as §1, §2, §3, §4

[8] = system: Brassica rapa (turnip), BRSRR; details: 20-22 d
Experimental: as §1, §2, §3, §4

[9] = system: Triticum aestivum (winter wheat), TRZAW; details: 20-22 d
Experimental: as §1, §2, §3, §4

[10] = system: Brassica napus (winter rape), BRSNW; details: 20-22 d
Experimental: as §1, §2, §3, §4

[11] = system: Brassica juncea (brown mustard), BRSJU; details: 5 g ae/ha alone, 20-22 d, Table 2
Experimental: as §1, §2, §3, §4

[12] = system: Brassica napus (spring rape; Roundup Ready), BRSNN-RR; details: 5 g ae/ha alone, 20-22 d, Table 2
Experimental: as §1, §2, §3, §4

[13] = system: Brassica alboglabra (chinese kale), BRSAG; details: 5 g ae/ha alone, 20-22 d, Table 2
Experimental: as §1, §2, §3, §4

In the case of O=C(O)CNCP(=O)(O)O [Glyphosate, N-(phosphonomethyl)glycine], the “% Visual Injury” value ([1]; 210 g ai/ha alone, Table 1) is reported as 25%, the “% Visual Injury” value ([2]; 210 g ai/ha alone, Table 1) is reported as 65% and the “% Visual Injury” value ([3]; 210 g ai/ha alone, Table 1) is reported as 0%. The “% Visual Injury” value ([4]; 210 g ai/ha alone, Table 1) was 60%, the “% Visual Injury” value ([5]; 210 g ai/ha alone, Table 1) was 50% and the “% Visual Injury” value ([6]; 210 g ai/ha alone, Table 1) was 45%. The “% Visual Injury” value ([7]; 210 g ai/ha alone, Table 1) was 70%, the “% Visual Injury” value ([8]; 210 g ai/ha alone, Table 1) was 65% and the “% Visual Injury” value ([9]; 210 g ai/ha alone, Table 1) was 75%. For the same compound, the “% Visual Injury” value ([10]; BRSNW* (retest), 210 g ai/ha alone, Table 1) was 30% and the “% Visual Injury” value ([10]; BRSNW, 210 g ai/ha alone, Table 1) was 20%.

For Nc1c(F)c(-c2ccc3cc[nH]c3c2F)nc(C(=O)O)c1Cl [Compound 1], the “% Visual Injury” value ([1]; 5 g ae/ha alone, Table 1) was 10%, the “% Visual Injury” value ([1]; 5 g ae/ha alone, Table 2) was 10% and the “% Visual Injury” value ([2]; 5 g ae/ha alone, Table 1) was 70%. The “% Visual Injury” value ([2]; 5 g ae/ha alone, Table 2) was 70%, the “% Visual Injury” value ([3]; 5 g ae/ha alone, Table 1) was 0% and the “% Visual Injury” value ([3]; 5 g ae/ha alone, Table 2) was 0%. The “% Visual Injury” value [11] was 60%, the “% Visual Injury” value ([4]; 5 g ae/ha alone, Table 1) was 60% and the “% Visual Injury” value ([4]; 5 g ae/ha alone, Table 2) was 60%. For the same compound, the “% Visual Injury” value ([5]; 5 g ae/ha alone, Table 1) was 5%, the “% Visual Injury” value ([5]; 5 g ae/ha alone, Table 2) was 5% and the “% Visual Injury” value ([6]; 5 g ae/ha alone, Table 1) was 65%. For the same compound, the “% Visual Injury” value ([6]; 5 g ae/ha alone, Table 2) was 65%, the “% Visual Injury” value ([7]; 5 g ae/ha alone, Table 1) was 5% and the “% Visual Injury” value ([7]; 5 g ae/ha alone, Table 2) was 5%. The “% Visual Injury” value ([8]; 5 g ae/ha alone, Table 1) was 50%, the “% Visual Injury” value ([8]; 5 g ae/ha alone, Table 2) was 50% and the “% Visual Injury” value [12] was 35%. The “% Visual Injury” value [13] was 15%, the “% Visual Injury” value ([9]; 5 g ae/ha alone, Table 1) was 5% and the “% Visual Injury” value ([9]; 5 g ae/ha alone, Table 2) was 5%. The “% Visual Injury” value ([10]; BRSNW* (retest), 5 g ae/ha alone, Table 1) was 50%, the “% Visual Injury” value ([10]; BRSNW* (retest), 5 g ae/ha alone, Table 2) was 30% and the “% Visual Injury” value ([10]; BRSNW, 5 g ae/ha alone, Table 1) was 30%. The “% Visual Injury” value ([10]; BRSNW, 5 g ae/ha alone, Table 2) was 50%.
